Reference: patent publication US11464772B2, “Methods of treating acute or chronic pain” (priority 2017, dated 2022)

What was measured:
[1] = test system: rats post spinal nerve ligation; experiment: Spinal nerve ligation (SNL), von Frey mechanical withdrawal (FIG. 3); type: in vivo, Sprague Dawley rats; conditions: oral, 100 mg/kg, 14 days post-SNL, tested 1, 2 and 4 hours
Experimental: Ligation of the L5 and L6 spinal nerves in rats leads to a robust pain state, characterized by tactile allodynia and mechanical hyperalgesia that can be assayed using the von Frey or Hargreaves assays (Kim, S. H. and Chung, J. M. Pain 50 (1992): 355-63). Sprague Dawley rats were housed in the animal vivarium 2 weeks prior to testing and housed on a 12 h light/dark cycle with food and water ad libitum. Under general anesthesia, the L5 and L6 spinal nerves on one side of the rat spine were tightly ligated using sterile surgical suture (Spinal Nerve Ligation, SNL). The incision site of each animal was then closed using standard surgical technique. Spared Nerve Injury: Animals were anesthetized by 2% isoflurane with 98% oxygen inhalation. […] The mechanical allodynia were measured at 60 minutes after administration every day (von Frey Cilia Apparatus, manufactured by Institute of Biology Bioengineering, Chinese Academy of Medical Science).
Baseline mechanical (von Frey) withdrawal responses were tested immediately before SNL surgery and 14 days after. […] Immediately after the 14-day post-surgical baseline responses were measured, Compound A (100 mg/kg), Gabapentin (100 mg/kg), or vehicle (control) were administered orally and voluntary withdrawal from von Frey mechanical stimuli were tested 1 hour, 2 hours and 4 hours later (FIG. 3). […]

[2] = test system: rats after intraplantar incision; experiment: Rodent paw incision, Hargreaves thermal withdrawal assay (FIG. 1); type: in vivo, Sprague Dawley rats; conditions: intravenous, 30 mg/kg, post-surgery baseline, tested 0.5-4 hours
Experimental: The rodent paw incision model involves inducing a surgical incision to the plantar surface of the back paw of a mouse or rat, suturing the incision closed, then testing the area proximal to the wound for changes in sensory perception, such as allodynia or hypersensitivity, at some point in time after the incision (typically 24 hours later)(Brennan T J et al. Pain. 1996 March, 64(3):493-501). Thermal (Hargreaves) and mechanical (von Frey) sensory testing is performed before and 24 hours after surgical incision of the plantar surface of the left back paw of laboratory rats, at a plantar area adjacent to the incision. […]
Plantar incision of the hind paw of the rat produces a profound local inflammatory response characterized by pain hypersensitivity (allodynia) 24 hours after surgery in rats, in similar manner to the post-operative pain observed in humans (Brennan, T. J. et al. Pain. 1996 March; 64(3):493-501). […] Three days prior to testing the compound, thermal (Hargreaves) and mechanical (von Frey) sensitivity were measured using standard techniques described below. […] The thermal sensitivities of the animals were measured before surgery and 24 hours after surgery using the Hargreaves Thermal Withdrawal Assay (FIG. 1) (Kim, S. H. and Chung, J. M. Pain 50 (1992): 355-63). […]

[3] = test system: rat models of neuropathic pain; conditions: rat models of neuropathic pain (Field et al. 1999); cited from earlier work

Compound: NCC1(CC(=O)O)CCCCC1 [gabapentin]
- reversal of reduced mechanical withdrawal thresholds post spinal nerve ligation [1]: reversed

Compound: CC(C)Cc1ccc(C(C)C(=O)O)cc1 (stereo not shown) [ibuprofen]
- reversal of reductions in thermal withdrawal thresholds after intraplantar incision [2]: not reversed

Compound: CN1CC[C@]23c4c5ccc(O)c4O[C@H]2[C@@H](O)C=C[C@H]3[C@H]1C5 [morphine]
- blocking of static and dynamic allodynia [3]: blocking only static allodynia, and not dynamic allodynia

Compound: CC(C)C[C@H](CN)CC(=O)O [pregablin]
- blocking of static and dynamic allodynia [3]: blocking both types of allodynia
